pIC50: −log10 of the molar value.
Test system: A375 multi-cell spheroids with HUVEC/MSC, viability
Assay: Anticancer human tumor A375 cell line growth inhibition [GQUAD];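 further: spheroids exposed to compounds for seven days before readout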
Conditions: for pIC50: curve of first compound; for viability, T/C: stronger effect = lower value; active means viability on the fitted dose curve at most 10% of control; inactive means the rest
Summary of the method: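 Multi-cell-type spheroids of tumor cells with HUVEC and mesenchymal stem cells, treated with drug combinations. Concentrations descend in half-log steps from near clinical Cmax, or from 10 microM where Cmax is unknown; viability read-out.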

[1] = second compound 0.0316 µM, first compound 0.0316 µM
[2] = second compound 0.0316 µM, first compound 0.1 µM
[3] = second compound 0.0316 µM, first compound 0.316 µM
[4] = second compound 0.0316 µM, first compound 1 µM
[5] = second compound 0.0316 µM, first compound 3.16 µM
[6] = second compound 0.0316 µM, first compound 10 µM
[7] = second compound 0.1 µM, first compound 0.0316 µM
[8] = second compound 0.1 µM, first compound 0.1 µM
[9] = second compound 0.1 µM, first compound 0.316 µM
[10] = second compound 0.1 µM, first compound 1 µM
[11] = second compound 0.1 µM, first compound 3.16 µM
[12] = second compound 0.1 µM, first compound 10 µM
[13] = second compound 0.316 µM, first compound 0.0316 µM
[14] = second compound 0.316 µM, first compound 0.1 µM
[15] = second compound 0.316 µM, first compound 0.316 µM
[16] = second compound 0.316 µM, first compound 1 µM
[17] = second compound 0.316 µM, first compound 3.16 µM
[18] = second compound 0.316 µM, first compound 10 µM
[19] = second compound 1 µM, first compound 0.0316 µM
[20] = second compound 1 µM, first compound 0.1 µM
[21] = second compound 1 µM, first compound 0.316 µM
[22] = second compound 1 µM, first compound 1 µM
[23] = second compound 1 µM, first compound 3.16 µM
[24] = second compound 1 µM, first compound 10 µM
[25] = second compound 3.16 µM, first compound 0.0316 µM
[26] = second compound 3.16 µM, first compound 0.1 µM
[27] = second compound 3.16 µM, first compound 0.316 µM
[28] = second compound 3.16 µM, first compound 1 µM
[29] = second compound 3.16 µM, first compound 3.16 µM
[30] = second compound 3.16 µM, first compound 10 µM
[31] = second compound 10 µM, first compound 0.0316 µM
[32] = second compound 10 µM, first compound 0.1 µM
[33] = second compound 10 µM, first compound 0.316 µM
[34] = second compound 10 µM, first compound 1 µM
[35] = second compound 10 µM, first compound 3.16 µM
[36] = second compound 10 µM, first compound 10 µM

COc1cccc2c1C(=O)c1c(O)c3c(c(O)c1C2=O)CC(O)(C(=O)CO)CC3OC1CC(N)C(O)C(C)O1 (centres undefined) + Cc1[nH]c2ccc(F)cc2c1-c1nc2c3cccnc3c3ncccc3c2[nH]1
6.49: pIC50 (second compound 10 µM)
6.60: pIC50 (second compound 1 µM)
active: viability, T/C [5] 2.15% | viability, T/C [6] 0.1% | viability, T/C [11] 2.23% | viability, T/C [12] 0.08% | viability, T/C [17] 3.01% | viability, T/C [18] 0.09% | viability, T/C [23] 3.16% | viability, T/C [24] 0.1% | viability, T/C [29] 0.45% | viability, T/C [30] 0.13% | viability, T/C [35] 1.35% | viability, T/C [36] 0.22%
6.57: pIC50 (second compound 0.0316 µM)
6.67: pIC50 (second compound 0.1 µM)
6.54: pIC50 (second compound 0.316 µM) | pIC50 (second compound 3.16 µM)
inactive: viability, T/C [1] 101% | viability, T/C [2] 90.8% | viability, T/C [3] 38.9% | viability, T/C [4] 20.5% | viability, T/C [7] 103% | viability, T/C [8] 74.5% | viability, T/C [9] 35.2% | viability, T/C [10] 19.8% | viability, T/C [13] 110% | viability, T/C [14] 89.2% | viability, T/C [15] 41.3% | viability, T/C [16] 22.7% | viability, T/C [19] 99.3% | viability, T/C [20] 82.8% | viability, T/C [21] 38.7% | viability, T/C [22] 18.7% | viability, T/C [25] 68.2% | viability, T/C [26] 60.1% | viability, T/C [27] 49.4% | viability, T/C [28] 21.3% | viability, T/C [31] 71.9% | viability, T/C [32] 72% | viability, T/C [33] 48.9% | viability, T/C [34] 20.9%

Cc1cccc(N(C)C(=O)C2C(O)CCN2c2nc(C)cc(C(F)(F)F)c2C#N)c1 (centres undefined) + Cc1[nH]c2ccc(F)cc2c1-c1nc2c3cccnc3c3ncccc3c2[nH]1
< 5.00: pIC50 (second compound 0.0316 µM) | pIC50 (second compound 0.1 µM) | pIC50 (second compound 0.316 µM) | pIC50 (second compound 1 µM) | pIC50 (second compound 3.16 µM) | pIC50 (second compound 10 µM)
inactive: viability, T/C [1] 102% | viability, T/C [2] 102% | viability, T/C [3] 94.8% | viability, T/C [4] 98.6% | viability, T/C [5] 95.5% | viability, T/C [6] 95.2% | viability, T/C [7] 106% | viability, T/C [8] 94.5% | viability, T/C [9] 105% | viability, T/C [10] 108% | viability, T/C [11] 104% | viability, T/C [12] 103% | viability, T/C [13] 98.1% | viability, T/C [14] 100% | viability, T/C [15] 93.5% | viability, T/C [16] 111% | viability, T/C [17] 111% | viability, T/C [18] 107% | viability, T/C [19] 95.7% | viability, T/C [20] 101% | viability, T/C [21] 106% | viability, T/C [22] 109% | viability, T/C [23] 103% | viability, T/C [24] 105% | viability, T/C [25] 80% | viability, T/C [26] 90.2% | viability, T/C [27] 94.7% | viability, T/C [28] 84.2% | viability, T/C [29] 89.5% | viability, T/C [30] 79.4% | viability, T/C [31] 106% | viability, T/C [32] 100% | viability, T/C [33] 112% | viability, T/C [34] 106% | viability, T/C [35] 97.6% | viability, T/C [36] 91.7%
